Test results published in BindingDB's records for doi:10.1007/s00213-002-1073-7 (WestfÄLische Wilhelms-Universit&Auml, 2002).

Assays:
[1] = target: 5-hydroxytryptamine receptor 2C (Homo sapiens, UniProt P28335)
[2] = target: Sodium-dependent noradrenaline transporter (Homo sapiens, UniProt P23975)
[3] = target: T1, Alpha-1A adrenergic receptor (Homo sapiens, UniProt P35348)
T1 sequence (P35348 whole entry): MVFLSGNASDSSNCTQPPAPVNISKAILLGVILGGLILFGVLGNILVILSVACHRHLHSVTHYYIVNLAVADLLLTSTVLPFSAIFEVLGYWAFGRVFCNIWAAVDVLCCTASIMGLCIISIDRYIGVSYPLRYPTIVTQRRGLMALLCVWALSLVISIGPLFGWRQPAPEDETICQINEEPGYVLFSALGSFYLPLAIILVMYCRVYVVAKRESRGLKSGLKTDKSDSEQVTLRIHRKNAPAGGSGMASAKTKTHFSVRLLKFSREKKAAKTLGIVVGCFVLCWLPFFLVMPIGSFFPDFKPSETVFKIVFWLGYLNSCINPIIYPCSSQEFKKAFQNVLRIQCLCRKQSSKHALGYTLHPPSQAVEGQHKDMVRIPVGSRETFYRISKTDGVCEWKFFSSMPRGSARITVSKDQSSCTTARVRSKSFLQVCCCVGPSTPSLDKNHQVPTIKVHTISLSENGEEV

[4] = target: T2, Alpha-2A adrenergic receptor (Homo sapiens, UniProt P08913)
T2 sequence (P08913 whole entry): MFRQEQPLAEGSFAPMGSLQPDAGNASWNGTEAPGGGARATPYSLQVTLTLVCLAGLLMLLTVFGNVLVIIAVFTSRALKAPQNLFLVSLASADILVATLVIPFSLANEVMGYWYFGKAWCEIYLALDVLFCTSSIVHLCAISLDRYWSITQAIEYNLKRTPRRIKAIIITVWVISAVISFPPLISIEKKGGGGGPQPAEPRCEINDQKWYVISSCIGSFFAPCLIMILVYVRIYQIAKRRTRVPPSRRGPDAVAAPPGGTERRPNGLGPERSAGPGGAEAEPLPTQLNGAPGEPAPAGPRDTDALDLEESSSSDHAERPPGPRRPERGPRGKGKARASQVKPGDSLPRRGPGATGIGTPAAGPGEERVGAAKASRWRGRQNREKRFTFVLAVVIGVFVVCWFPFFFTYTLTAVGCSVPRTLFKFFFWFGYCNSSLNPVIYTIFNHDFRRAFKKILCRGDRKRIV

[5] = target: T3, Muscarinic acetylcholine receptor M4 (Homo sapiens, UniProt P08173)
T3 sequence (P08173 whole entry): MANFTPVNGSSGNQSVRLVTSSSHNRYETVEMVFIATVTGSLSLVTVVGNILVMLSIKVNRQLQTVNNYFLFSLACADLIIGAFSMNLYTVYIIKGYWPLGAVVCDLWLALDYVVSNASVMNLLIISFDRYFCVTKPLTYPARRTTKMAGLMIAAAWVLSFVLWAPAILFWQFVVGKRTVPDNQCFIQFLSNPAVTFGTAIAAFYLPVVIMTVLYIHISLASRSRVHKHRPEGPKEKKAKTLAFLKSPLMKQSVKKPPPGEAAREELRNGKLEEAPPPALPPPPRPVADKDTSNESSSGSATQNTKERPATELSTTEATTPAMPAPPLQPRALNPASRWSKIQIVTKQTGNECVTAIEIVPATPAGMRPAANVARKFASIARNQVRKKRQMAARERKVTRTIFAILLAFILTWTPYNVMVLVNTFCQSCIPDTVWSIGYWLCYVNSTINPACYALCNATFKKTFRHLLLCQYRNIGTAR

[6] = target: Delta-type opioid receptor (Homo sapiens, UniProt P41143)
Delta-type opioid receptor (Homo sapiens, UniProt P41143), sequence (P41143 whole entry): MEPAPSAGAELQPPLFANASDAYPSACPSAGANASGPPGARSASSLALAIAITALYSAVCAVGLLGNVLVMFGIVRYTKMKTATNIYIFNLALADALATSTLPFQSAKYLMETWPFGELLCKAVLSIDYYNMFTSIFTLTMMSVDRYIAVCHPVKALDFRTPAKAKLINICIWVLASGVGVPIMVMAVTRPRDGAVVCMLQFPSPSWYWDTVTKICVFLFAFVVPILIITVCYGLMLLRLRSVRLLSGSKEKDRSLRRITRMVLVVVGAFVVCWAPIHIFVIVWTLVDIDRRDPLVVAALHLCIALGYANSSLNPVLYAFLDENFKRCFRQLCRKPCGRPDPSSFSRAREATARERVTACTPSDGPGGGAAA

[7] = target: Glutamate receptor ionotropic, NMDA 1 (Rattus norvegicus, UniProt P35439)
[8] = target: 5-hydroxytryptamine receptor 1B (Homo sapiens, UniProt P28222)
5-hydroxytryptamine receptor 1B, sequence (P28222 whole entry): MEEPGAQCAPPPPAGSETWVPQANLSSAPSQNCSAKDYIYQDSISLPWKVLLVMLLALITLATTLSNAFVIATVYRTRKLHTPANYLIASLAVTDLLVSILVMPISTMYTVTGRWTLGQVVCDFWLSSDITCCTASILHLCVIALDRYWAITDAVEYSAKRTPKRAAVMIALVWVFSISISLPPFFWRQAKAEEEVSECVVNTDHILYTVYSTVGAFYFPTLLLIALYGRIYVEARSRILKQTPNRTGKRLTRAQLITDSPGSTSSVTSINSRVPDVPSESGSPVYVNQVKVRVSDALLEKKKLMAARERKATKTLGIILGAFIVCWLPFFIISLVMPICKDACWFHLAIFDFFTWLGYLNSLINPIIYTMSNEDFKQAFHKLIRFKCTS

Vasopressin V2 receptor = Vasopressin V2 receptor (Homo sapiens, UniProt P30518)
Vasopressin V2 receptor, sequence (P30518 whole entry): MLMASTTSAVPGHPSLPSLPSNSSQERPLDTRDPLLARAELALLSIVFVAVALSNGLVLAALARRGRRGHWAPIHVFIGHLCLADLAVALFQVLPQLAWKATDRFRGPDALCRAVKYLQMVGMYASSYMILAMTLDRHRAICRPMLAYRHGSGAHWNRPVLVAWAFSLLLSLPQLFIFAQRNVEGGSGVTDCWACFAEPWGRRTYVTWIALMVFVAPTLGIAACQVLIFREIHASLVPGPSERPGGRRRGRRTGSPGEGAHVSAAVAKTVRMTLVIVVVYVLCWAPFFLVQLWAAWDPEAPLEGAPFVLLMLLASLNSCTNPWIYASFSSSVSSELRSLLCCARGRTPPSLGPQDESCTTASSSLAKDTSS

Mu-type opioid receptor = Mu-type opioid receptor (Homo sapiens, UniProt P35372)
Mu-type opioid receptor, sequence (P35372 whole entry): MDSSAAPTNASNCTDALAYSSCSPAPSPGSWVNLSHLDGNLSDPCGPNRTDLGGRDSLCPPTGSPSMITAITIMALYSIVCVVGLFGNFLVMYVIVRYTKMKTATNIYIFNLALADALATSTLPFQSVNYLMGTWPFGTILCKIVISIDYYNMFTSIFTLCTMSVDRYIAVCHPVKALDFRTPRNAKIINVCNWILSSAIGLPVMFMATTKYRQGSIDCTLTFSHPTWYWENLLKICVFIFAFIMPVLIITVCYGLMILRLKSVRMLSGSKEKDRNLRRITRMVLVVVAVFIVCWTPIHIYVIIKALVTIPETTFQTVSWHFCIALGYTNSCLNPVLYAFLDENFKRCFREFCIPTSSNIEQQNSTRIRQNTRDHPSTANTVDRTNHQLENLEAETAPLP

[9] = target: Delta-type opioid receptor (Sus scrofa, UniProt P79291)
Delta-type opioid receptor (Sus scrofa, UniProt P79291), sequence (P79291 whole entry): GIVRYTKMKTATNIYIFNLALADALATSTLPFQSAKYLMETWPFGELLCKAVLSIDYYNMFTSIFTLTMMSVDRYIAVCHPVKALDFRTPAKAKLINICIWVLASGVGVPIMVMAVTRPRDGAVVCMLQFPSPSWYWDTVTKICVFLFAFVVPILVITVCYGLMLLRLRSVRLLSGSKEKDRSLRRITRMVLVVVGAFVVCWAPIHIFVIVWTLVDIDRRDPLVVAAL

[10] = target: T4, 5-hydroxytryptamine receptor 2C (Rattus norvegicus, UniProt P08909)
T4 sequence (P08909 whole entry): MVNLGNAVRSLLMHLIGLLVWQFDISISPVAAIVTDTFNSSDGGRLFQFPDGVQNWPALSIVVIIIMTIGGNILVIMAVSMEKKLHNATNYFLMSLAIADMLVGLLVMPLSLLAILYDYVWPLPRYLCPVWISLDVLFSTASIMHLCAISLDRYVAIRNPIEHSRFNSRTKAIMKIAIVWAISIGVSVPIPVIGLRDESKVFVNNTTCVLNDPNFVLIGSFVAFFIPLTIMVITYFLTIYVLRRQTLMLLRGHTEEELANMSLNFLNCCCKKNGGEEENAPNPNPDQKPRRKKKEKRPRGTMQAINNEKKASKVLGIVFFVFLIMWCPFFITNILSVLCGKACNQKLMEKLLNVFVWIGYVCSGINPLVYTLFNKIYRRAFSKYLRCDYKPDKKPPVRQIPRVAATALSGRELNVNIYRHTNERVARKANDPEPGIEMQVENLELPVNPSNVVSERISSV

[11] = target: Gamma-aminobutyric acid receptor subunit alpha-1 (Rattus norvegicus, UniProt P62813)
Gamma-aminobutyric acid receptor subunit alpha-1, sequence (P62813 whole entry): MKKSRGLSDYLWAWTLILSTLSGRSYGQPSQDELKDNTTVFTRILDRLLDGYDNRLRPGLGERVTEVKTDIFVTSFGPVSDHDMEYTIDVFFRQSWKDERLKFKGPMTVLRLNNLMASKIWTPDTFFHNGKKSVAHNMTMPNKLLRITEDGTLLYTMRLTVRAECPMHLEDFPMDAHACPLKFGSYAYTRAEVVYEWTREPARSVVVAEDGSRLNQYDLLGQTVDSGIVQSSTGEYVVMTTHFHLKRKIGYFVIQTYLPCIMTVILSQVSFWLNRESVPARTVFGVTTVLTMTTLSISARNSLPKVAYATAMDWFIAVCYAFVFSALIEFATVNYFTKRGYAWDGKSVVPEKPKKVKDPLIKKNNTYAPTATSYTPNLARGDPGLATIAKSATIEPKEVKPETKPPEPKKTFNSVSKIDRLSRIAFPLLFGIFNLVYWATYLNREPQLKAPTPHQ

[12] = target: Sodium-dependent serotonin transporter (Homo sapiens, UniProt P31645)
Sodium-dependent serotonin transporter, sequence (P31645 whole entry): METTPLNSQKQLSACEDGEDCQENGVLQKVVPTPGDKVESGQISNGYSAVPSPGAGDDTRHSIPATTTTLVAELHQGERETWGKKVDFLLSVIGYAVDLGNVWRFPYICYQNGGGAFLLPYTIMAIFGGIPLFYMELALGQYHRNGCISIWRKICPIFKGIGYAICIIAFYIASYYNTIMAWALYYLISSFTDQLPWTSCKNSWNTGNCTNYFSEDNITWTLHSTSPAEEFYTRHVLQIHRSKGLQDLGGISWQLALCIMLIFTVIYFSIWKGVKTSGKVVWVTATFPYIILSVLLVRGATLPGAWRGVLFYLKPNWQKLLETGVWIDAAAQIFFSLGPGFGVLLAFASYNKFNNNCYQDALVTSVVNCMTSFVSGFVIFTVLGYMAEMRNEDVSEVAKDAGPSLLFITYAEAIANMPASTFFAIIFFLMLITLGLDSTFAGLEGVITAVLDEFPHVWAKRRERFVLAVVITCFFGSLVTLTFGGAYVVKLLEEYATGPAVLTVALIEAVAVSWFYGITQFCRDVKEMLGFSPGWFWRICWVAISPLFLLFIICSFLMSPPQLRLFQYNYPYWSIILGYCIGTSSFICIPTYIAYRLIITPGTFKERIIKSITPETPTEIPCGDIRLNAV

Sodium-dependent noradrenaline transporter, sequence (P23975 whole entry): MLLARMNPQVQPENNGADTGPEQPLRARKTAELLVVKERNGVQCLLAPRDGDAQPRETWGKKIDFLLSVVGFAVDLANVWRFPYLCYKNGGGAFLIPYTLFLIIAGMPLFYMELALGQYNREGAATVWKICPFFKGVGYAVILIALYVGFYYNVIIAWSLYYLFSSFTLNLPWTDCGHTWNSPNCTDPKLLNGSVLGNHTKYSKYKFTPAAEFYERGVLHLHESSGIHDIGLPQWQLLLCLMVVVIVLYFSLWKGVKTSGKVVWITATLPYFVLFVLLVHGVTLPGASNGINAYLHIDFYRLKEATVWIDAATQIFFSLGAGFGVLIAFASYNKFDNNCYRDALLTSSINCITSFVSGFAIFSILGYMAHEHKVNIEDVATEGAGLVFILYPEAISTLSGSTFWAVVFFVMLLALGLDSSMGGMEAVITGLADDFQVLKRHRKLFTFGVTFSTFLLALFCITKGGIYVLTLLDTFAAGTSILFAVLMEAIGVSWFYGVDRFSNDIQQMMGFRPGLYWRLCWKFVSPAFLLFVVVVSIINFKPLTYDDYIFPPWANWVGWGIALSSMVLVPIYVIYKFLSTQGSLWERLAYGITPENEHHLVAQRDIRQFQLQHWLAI
5-hydroxytryptamine receptor 2C (Homo sapiens, UniProt P28335), sequence (P28335 whole entry): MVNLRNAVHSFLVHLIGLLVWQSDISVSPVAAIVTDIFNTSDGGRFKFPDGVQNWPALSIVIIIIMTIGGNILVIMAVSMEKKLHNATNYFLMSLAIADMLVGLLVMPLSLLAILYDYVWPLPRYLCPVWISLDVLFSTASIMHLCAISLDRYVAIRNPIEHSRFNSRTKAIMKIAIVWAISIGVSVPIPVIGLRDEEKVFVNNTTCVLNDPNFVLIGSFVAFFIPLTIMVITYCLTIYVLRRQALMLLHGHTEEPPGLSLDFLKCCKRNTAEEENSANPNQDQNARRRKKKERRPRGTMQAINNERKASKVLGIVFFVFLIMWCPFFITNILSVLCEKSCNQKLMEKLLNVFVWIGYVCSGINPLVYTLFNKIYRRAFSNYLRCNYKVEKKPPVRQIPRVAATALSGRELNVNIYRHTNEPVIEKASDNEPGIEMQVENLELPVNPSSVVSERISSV

Row | Structure (SMILES) | Ki [1] | Ki [2] | Ki [3] | Ki [4] | Ki [5] | Ki [6] | Ki [7] | Ki [8] | Ki (Vasopressin V2 receptor) | Ki (Mu-type opioid receptor) | Ki [9] | Ki [10] | Ki [11] | Ki [12]
1 | O=c1cc(O)cc2oc(-c3ccc(O)c(-c4c(O)cc(O)c5c(=O)cc(-c6ccc(O)cc6)oc45)c3)cc(O)c1-2 | 2.56 µM | > 10 µM | > 10 µM | > 10 µM | > 10 µM | 0.0365 µM | > 10 µM | 4.09 µM | > 10 µM | > 10 µM |  |  |  | 
2 | CC(C)=CCC[C@]1(C)[C@@H](CC=C(C)C)C[C@]2(CC=C(C)C)C(=O)C(CC=C(C)C)C(=O)[C@]1(C(=O)C(C)C)C2=O (stereo partly specified) |  | > 10 µM | > 10 µM | > 10 µM | > 10 µM |  | > 10 µM |  | > 10 µM | > 10 µM | > 10 µM | > 10 µM | > 10 µM | 
3 | O=c1cc(O)cc2oc(-c3ccc(O)c(O)c3)c(OC3OC(CO)C(O)C(O)C3O)c(O)c1-2 (stereo unspecified) [NSC_5318390] |  | > 10 µM | > 10 µM |  | > 10 µM |  | > 10 µM |  | > 10 µM | > 10 µM | > 10 µM | > 10 µM | > 10 µM | > 10 µM
4 | C[C@@H]1O[C@@H](OC[C@H]2O[C@@H](Oc3c(-c4ccc(O)c(O)c4)oc4cc(O)cc(O)c4c3=O)[C@H](O)[C@@H](O)[C@@H]2O)[C@H](O)[C@H](O)[C@H]1O [3-Rhamnoglucosylquercetin] |  | > 10 µM | > 10 µM | 9.34 µM | > 10 µM |  | > 10 µM |  | > 10 µM | > 10 µM | > 10 µM | > 10 µM | > 10 µM | > 10 µM
5 | O=c1c(O)c(-c2ccc(O)c(O)c2)oc2cc(O)cc(O)c12 [2-(3,4-dihydroxyphenyl)-3,5,7-trihydroxy-chromone;hydrate] |  |  |  | > 10 µM | > 10 µM |  |  |  |  |  | > 10 µM | > 10 µM |  | 
6 | C[C@@H]1O[C@@H](Oc2c(-c3ccc(O)c(O)c3)oc3cc(O)cc(=O)c-3c2O)[C@H](O)[C@H](O)[C@H]1O |  | > 10 µM | > 10 µM | > 10 µM | > 10 µM |  | > 10 µM |  | > 10 µM | > 10 µM | > 10 µM | > 10 µM | > 10 µM | > 10 µM
